Literature values as cited in PMC5131364, “Pharmacologic modulation of RORγt translates to efficacy in preclinical and translational models of psoriasis and inflammatory arthritis” (Scientific Reports, 2016).

Key:
psoriatic skin = conditions: after 12 weeks of treatment ref 70; cited from earlier work
mouse CIA model = tested on: mouse CIA model; parameters: method as in PMID 24574218; conditions: mouse CIA model ref 49; cited from earlier work

Compound | IL-17A and IL-17F gene expression in psoriatic skin (psoriatic skin) | joint inflammation and clinical scores (mouse CIA model)
guselkumab: anti-IL-23 mAb | significant inhibition | –
OC(c1ccc(-c2ccc(CN3CCN(Cc4ccncc4)CC3)cc2)c(F)c1)(C(F)(F)F)C(F)(F)F [SR2211] | – | reduce joint inflammation
